The source of these data is patent US20210386787A1, “Hematopoietic Stem and Progenitor Cell Expansion System” (LIFE TECHNOLOGIES CORPORATION, priority 2018, published 2021).

In the experiment the test system is CD34^+ mPB cells. Briefly: Effect of garcinol and VPA on medium performance: 7-day expansion of CD34+ mPB cells in medium ± VPA or garcinol. The format is cell-based. On the set-up: key to % CD34^+CD90^+ / Fold TNC / % CD34^+ / Fold CD34^+: (+) is baseline; (++) or greater improvement; (*) denotes no data (the cells died when garcinol was added to ACF). Particulars: for % CD34^+CD90^+ / Fold TNC / % CD34^+ / Fold CD34^+: day 7, three donors. The method, then:
In vitro expansion. Enriched CD34^+ cells from three donors of human mobilized peripheral blood (mPB, AllCells) were cultured in the following serum free media: HSC Medium (as provided herein), and the commercially available Stem Cell Growth Medium (SCGM, CellGenix GmbH), STEMSPAN™ Animal Component Free (ACF, STEMCELL Technologies), and STEMPRO™ 34 (Thermo Fisher Scientific). All media were supplemented with 100 ng/mL SCF, 100 ng/mL FLT-3L, 100 ng/mL TPO, 50 ng/mL IL-3, and 20 ng/mL IL-6 (all provided by Thermo Fisher Scientific). HSC expansion was initiated by culturing 5×10^3 CD34^+ cells/mL in a 48 well plate for 7 days in a humidified 37° C., 5% CO2 incubator. At day 7, total nucleated cell (TNC) number and % viability were assessed using a Countess II cell counter (Thermo Fisher Scientific), and cell phenotype was performed by flow cytometry.
Flow cytometry analysis. TNC were washed in phosphate-buffered saline (PBS) and incubated for 20 minutes at room temperature with LIVE/DEAD® Fixable Yellow stain in PBS. Cells were washed in flow cytometry staining buffer, and incubated with a cocktail of monoclonal antibodies against human cell surface antigens: CD34 PE-Cy7, CD90 APC, CD45RA Pacific Blue, for 30 minutes at 4° C. Cells were analyzed on a Attune NxT flow cytometer (Thermo Fisher Scientific), and FLOWJO® Software (version 7.6.5 Becton Dickinson).
Effect of small molecules to medium performance. To assess the contribution of valproic acid (VPA) and garcinol to competitor media, the small molecules were added to SCGM and STEMSPAN™ ACF either in combination or individually at the final concentration present in HSC Medium. To address whether there is a reduction in performance of HSC Medium when the small molecules were excluded from the formulation, either VPA or garcinol were removed during manufacture. CD34^+ mPB cells from three donors were cultured as described above (Example 1) in medium±VPA or garcinol, and compared with HSC medium, STEMSPAN™ ACF, SCGM or STEMSPAN™ ACF with STEMSPAN™ CD34^+ Expansion Supplement (10×). At day 7, cells were assessed for TNC, % viability, CD34^+, CD34^+CD90^+CD45RA^− cells as described above. To pool data points (CD34^+ expansion, TNC expansion) from the three donors, all conditions were normalized to SCGM media the standard error calculated. For pooling of % CD34^+ and % CD34^+CD90^+CD45RA^− data points in the three donors, the values were averaged and standard error calculated.

Setting [1] is: in HSC Medium made with the named small molecule(s) only.
Where [2] appears, read: small molecule(s) added to SCGM.
Where [3] appears, read: small molecule(s) added to ACF (STEMSPAN ACF).

Molecules are shown by their SMILES.

For `C=C(C)[C@@H](CC=C(C)C)C[C@@]12C[C@@H](CC=C(C)C)C(C)(C)[C@@](CC=C(C)C)(C(=O)C(C(=O)c3ccc(O)c(O)c3)=C1O)C2=O` [Garcinol, garcinol], under setting [1], the “% CD34^+CD90^+” value is given as “+” and the “Fold TNC” value is on record as “+”. In addition, under setting [2], the “% CD34^+” value is “+”, the “% CD34^+CD90^+” value is listed as “+”, the “Fold CD34^+” value is on record as “+” and the “Fold TNC” value was “+”.

Consider `CCCC(CCC)C(=O)O` [VPA, valproic acid], for which the “performance (HSC expansion)” value (added to ACF) is “boosted performance to HSC Medium (with garcinol and VPA) levels”. Where the note is “added to competitor media”, the “% CD34^+CD90^+CD45RA^−” value is reported as “improved”. For the same compound, the “expansion of HSC / performance” value (added to competitor media (SCGM, STEMSPAN ACF)) was “improved expansion of HSC”. Moreover, under setting [1], the “% CD34^+” value is reported as “++”, the “Fold CD34^+” value is listed as “+” and the “Fold TNC” value was “+”. Further, under setting [3], the “% CD34^+” value was “++” and the “% CD34^+CD90^+” value is given as “++”. Besides, under setting [2], the “% CD34^+” value was “++”, the “% CD34^+CD90^+” value is reported as “++”, the “Fold CD34^+” value was “++” and the “Fold TNC” value is recorded as “++”.
